Values quoted from earlier work, collected in patent US7005448B2, “Aminoalkyl-benzofuran-5-ol compounds for the treatment of glaucoma” (priority 2001, dated 2006).
Where two headings read alike, the source gives them in different places.

Columns and labels:
rabbit eye = settings: for intraocular pressure in the anterior chamber of the eye: topically applied to the rabbit eye [Meyer-Bothling et al. 1993]
5-HT2A receptor = 5-HT2A receptor (Homo sapiens, UniProt P28223)
animals = settings: in vivo
[1] = intracamerally [Krootila et al. 1987]

Chain of 5-HT2A receptor (P28223 whole entry): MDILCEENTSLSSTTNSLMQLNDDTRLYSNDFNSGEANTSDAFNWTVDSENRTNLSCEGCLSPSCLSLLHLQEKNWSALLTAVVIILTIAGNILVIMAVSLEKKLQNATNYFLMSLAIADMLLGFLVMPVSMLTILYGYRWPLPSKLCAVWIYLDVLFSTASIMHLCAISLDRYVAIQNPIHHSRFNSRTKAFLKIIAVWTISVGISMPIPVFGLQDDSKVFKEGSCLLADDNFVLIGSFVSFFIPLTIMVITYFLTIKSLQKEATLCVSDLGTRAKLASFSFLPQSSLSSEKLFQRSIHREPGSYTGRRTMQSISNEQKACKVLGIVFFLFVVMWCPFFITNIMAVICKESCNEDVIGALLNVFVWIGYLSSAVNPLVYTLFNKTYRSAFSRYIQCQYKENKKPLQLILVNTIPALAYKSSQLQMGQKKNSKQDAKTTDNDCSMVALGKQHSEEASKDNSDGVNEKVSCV

COc1ccccc1N1CCN(CCCNc2c(C)c(=O)n(C)c(=O)n2C)CC1 [5-methylurapidil]
IOP (glaucomatous monkeys): lowered IOP
α1 receptor antagonist activity (α1 receptor): relatively potent α1 receptor antagonists

CCCN(CCC)C1CCc2cccc(O)c2C1 (stereo not shown) [8-hydroxy DPAT]
IOP (rabbit eye; rabbits): lower IOP

NCCc1c[nH]c2ccc(C(N)=O)cc12 [Compound 5-CT, 5-carboxamidotryptainine]
intraocular pressure in the anterior chamber of the eye (rabbit eye): raise intraocular pressure

NCCc1c[nH]c2ccc(O)cc12 [Compound 5-HT, 5-hydroxy tryptamine]
IOP (rabbit eye; [1]): raised IOP
blood-aqueous barrier (rabbit eye; [1]): breakdown of the blood-aqueous barrier
IOP (rabbit eye; topically applied [Krootila et al. 1987]): lowers IOP
intraocular pressure in the anterior chamber of the eye (rabbit eye): raise intraocular pressure

O=C(c1ccc(F)cc1)C1CCN(CCn2c(=O)[nH]c3ccccc3c2=O)CC1 [Ketanserin]
IOP (rabbit eye; rabbits): lowers IOP
IOP (human subjects; man): lowers IOP
α1 receptor antagonist activity (α1 receptor): significant α1 antagonist activity

c1ccc2c(c1)OC[C@H](CNCCCOc1ccc3c(c1)OCO3)O2 [MKC-242]
IOP (rabbit eye; rabbits): lower IOP
α1 receptor antagonist activity (α1 receptor): relatively potent α1 receptor antagonists

CC[C@@H](CO)NC(=O)[C@@H]1C=C2c3cccc4c3c(cn4C)C[C@H]2N(C)C1 [Methysergide]
IOP (rabbit eye; rabbits): lowered IOP

COc1cccc(CCc2ccccc2OCC(CN(C)C)OC(=O)CCC(=O)O)c1 (stereo not shown) [Saprogrelate]
IOP (rabbit eye; rabbits, dosed topically or orally): lowers IOP
IOP (human subjects; man, dosed topically or orally): lowers IOP

CC(N)Cc1c2ccoc2c(Br)c2ccoc12 (stereo not shown) [The Nichols compound]
affinity for the 5-HT2A receptor (5-HT2A receptor): high affinity
generalization to LSD in drug discrimination studies (animals): generalize to LSD

CNCCC(Oc1ccc(C(F)(F)F)cc1)c1ccccc1 (stereo not shown) [fluoxetine]
IOP (human subjects; human subjects, oral administration): raises IOP
